Data taken from ChEMBL document CHEMBL1156860, “Synthesis and biological activities of novel indole derivatives as potent and selective PPARgamma modulators” (Bioorg Med Chem Lett, 2010).

Experiments:
Rattus norvegicus [1] = test: Antidiabetic activity in Zucker fa/fa rat assessed as reduction in triglyceride level in at 10 mg/kg, po twice a day for 5 days; type: functional; design: scale not given: the % may be the effect or the level left
Rattus norvegicus [2] = test: Antidiabetic activity in Zucker fa/fa rat assessed as reduction in hematocrit level in at 10 mg/kg, po twice a day for 5 days; type: functional; design: scale not given: the % may be the effect or the level left
[3] = AUC in Zucker fa/fa rat at 5 mg/kg, po; type: ADME, organism-based; design: dose 5 mg/kg, route oral; details: plasma
Rattus norvegicus [4] = test: Antidiabetic activity in Zucker fa/fa rat assessed as reduction in plasma glucose level in at 10 mg/kg, po twice a day for 5 days; type: functional; design: scale not given: the % may be the effect or the level left
[5] = biological target: T1, Peroxisome proliferator-activated receptor delta (Homo sapiens, UniProt Q03181); test: Displacement of radiolabeled GW-2433 from human PPARdelta ligand binding domain expressed in Escherichia coli
T1 sequence (Q03181 whole entry): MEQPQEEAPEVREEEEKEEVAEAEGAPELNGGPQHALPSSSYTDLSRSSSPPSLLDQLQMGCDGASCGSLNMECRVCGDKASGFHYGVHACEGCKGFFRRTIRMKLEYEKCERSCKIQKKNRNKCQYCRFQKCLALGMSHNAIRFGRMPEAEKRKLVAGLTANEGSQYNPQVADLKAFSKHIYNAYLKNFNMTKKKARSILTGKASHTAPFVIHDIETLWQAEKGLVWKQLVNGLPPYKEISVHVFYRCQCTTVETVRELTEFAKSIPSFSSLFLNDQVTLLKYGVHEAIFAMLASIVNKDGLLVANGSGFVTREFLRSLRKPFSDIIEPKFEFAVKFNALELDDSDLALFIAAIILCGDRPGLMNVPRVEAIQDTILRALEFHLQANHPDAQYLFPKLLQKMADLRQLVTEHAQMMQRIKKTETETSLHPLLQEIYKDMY

[6] = biological target: T2, Peroxisome proliferator-activated receptor alpha (Homo sapiens, UniProt Q07869); test: Agonist activity at human PPARalpha expressed in african green monkey CV1 cells by Gal4 transactivation assay; type: functional, cell-based, CV-1
T2 sequence (Q07869 whole entry): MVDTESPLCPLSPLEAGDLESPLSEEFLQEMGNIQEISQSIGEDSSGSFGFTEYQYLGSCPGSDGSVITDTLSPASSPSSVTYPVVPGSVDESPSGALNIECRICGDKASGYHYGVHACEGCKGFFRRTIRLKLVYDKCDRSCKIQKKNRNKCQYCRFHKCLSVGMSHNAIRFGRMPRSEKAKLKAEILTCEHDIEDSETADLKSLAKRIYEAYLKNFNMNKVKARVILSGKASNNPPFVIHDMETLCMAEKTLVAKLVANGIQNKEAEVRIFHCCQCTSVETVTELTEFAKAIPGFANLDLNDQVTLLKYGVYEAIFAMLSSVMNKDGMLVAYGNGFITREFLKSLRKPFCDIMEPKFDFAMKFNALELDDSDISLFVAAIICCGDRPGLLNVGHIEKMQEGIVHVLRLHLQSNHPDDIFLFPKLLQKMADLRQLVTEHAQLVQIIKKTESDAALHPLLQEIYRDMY

[7] = biological target: T3, Peroxisome proliferator-activated receptor gamma (Homo sapiens, UniProt P37231)
T3 sequence (P37231 whole entry): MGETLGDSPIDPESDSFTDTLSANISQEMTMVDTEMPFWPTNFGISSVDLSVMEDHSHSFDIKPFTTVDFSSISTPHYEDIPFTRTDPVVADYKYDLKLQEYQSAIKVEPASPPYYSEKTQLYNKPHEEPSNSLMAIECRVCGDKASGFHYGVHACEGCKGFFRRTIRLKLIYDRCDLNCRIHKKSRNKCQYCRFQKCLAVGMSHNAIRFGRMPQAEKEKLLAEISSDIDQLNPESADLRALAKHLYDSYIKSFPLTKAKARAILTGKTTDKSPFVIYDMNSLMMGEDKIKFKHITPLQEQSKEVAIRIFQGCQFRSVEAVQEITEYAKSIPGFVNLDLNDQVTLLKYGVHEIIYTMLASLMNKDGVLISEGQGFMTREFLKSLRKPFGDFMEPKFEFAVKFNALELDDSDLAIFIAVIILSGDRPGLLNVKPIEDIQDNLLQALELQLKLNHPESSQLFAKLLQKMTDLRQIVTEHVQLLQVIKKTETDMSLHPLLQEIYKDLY
Description: Agonist activity at human PPARgamma expressed in african green monkey CV1 cells by Gal4 transactivation assay

[8] = biological target: T3, Peroxisome proliferator-activated receptor gamma; remark: listed apart in the source
Description: Displacement of radiolabeled ((5-{4-[Methyl-pyridin-2yl-amino)-ethoxy]-benzyl}-thiazolidine-2,4-dione) from human PPARgamma ligand binding domain expressed in Escherichia coli

[9] = biological target: T2, Peroxisome proliferator-activated receptor alpha; test: Displacement of radiolabeled GW-2433 from human PPARalpha ligand binding domain expressed in Escherichia coli
[10] = biological target: T4, Peroxisome proliferator-activated receptor alpha (Mus musculus, UniProt P23204); test: Agonist activity at mouse PPARalpha expressed in african green monkey CV1 cells by Gal4 transactivation assay; type: functional, cell-based, CV-1
T4 sequence (P23204 whole entry): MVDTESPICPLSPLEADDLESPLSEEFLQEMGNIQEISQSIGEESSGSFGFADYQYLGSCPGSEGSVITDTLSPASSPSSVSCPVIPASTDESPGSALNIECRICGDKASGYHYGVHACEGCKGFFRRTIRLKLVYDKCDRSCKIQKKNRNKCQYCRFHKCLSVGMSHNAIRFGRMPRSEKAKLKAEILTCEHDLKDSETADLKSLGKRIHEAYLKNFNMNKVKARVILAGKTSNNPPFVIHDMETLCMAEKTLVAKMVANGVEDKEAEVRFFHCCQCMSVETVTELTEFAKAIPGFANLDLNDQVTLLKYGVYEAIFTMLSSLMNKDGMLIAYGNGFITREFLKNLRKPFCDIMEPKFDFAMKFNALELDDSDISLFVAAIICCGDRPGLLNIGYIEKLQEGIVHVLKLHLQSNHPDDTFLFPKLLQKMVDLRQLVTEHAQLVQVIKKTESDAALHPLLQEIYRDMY

[11] = biological target: T5, Peroxisome proliferator-activated receptor delta (Mus musculus, UniProt P35396); test: Agonist activity at mouse PPARdelta expressed in african green monkey CV1 cells by Gal4 transactivation assay; type: functional, cell-based, CV-1
T5 sequence (P35396 whole entry): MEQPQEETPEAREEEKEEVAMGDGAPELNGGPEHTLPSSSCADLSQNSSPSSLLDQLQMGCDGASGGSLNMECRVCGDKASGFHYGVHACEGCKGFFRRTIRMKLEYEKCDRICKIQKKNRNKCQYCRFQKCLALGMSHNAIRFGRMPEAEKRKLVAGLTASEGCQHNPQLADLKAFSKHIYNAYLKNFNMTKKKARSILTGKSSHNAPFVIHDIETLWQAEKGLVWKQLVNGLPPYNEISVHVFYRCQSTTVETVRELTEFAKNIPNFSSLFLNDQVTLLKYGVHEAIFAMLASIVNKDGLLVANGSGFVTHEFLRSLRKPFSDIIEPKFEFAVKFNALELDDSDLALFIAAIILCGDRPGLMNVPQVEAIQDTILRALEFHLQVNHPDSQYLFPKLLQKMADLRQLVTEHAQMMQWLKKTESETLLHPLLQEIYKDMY

[12] = biological target: T6, Peroxisome proliferator-activated receptor gamma (Mus musculus, UniProt P37238); test: Agonist activity at mouse PPARgamma expressed in african green monkey CV1 cells by Gal4 transactivation assay; type: functional, cell-based, CV-1
T6 sequence (P37238 whole entry): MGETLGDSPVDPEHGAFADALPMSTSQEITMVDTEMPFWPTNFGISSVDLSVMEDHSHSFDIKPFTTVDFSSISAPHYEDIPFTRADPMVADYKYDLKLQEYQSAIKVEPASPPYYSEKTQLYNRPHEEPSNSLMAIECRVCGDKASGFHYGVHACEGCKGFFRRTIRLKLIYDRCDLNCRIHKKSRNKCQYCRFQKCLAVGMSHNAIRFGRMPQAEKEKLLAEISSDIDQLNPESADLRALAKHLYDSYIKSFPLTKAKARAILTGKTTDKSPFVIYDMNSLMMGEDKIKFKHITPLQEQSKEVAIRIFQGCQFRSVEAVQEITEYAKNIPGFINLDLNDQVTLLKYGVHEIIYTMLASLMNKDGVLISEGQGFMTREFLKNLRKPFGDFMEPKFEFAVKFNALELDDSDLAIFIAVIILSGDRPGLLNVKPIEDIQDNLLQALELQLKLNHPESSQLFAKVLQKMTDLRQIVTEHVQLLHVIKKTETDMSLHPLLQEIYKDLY

[13] = biological target: T1, Peroxisome proliferator-activated receptor delta; test: Agonist activity at human PPARdelta expressed in african green monkey CV1 cells by Gal4 transactivation assay; type: functional, cell-based, CV-1
[14] = biological target: T7, Peroxisome proliferator-activated receptor alpha (Homo sapiens) (UniProt Q07869); test: Agonist activity at human PPARalpha expressed in african green monkey CV1 cells by Gal4 transactivation assay relative to SW516; type: functional, cell-based; details: CV-1
T7 sequence (whole entry): T2 sequence (Q07869 whole entry)

[15] = biological target: T8, Peroxisome proliferator-activated receptor alpha (Mus musculus) (UniProt P23204); test: Agonist activity at mouse PPARalpha expressed in african green monkey CV1 cells by Gal4 transactivation assay relative to SW516; type: functional, cell-based; details: CV-1
T8 sequence (whole entry): T4 sequence (P23204 whole entry)

[16] = Oral bioavailability in CD rat at 1 mg/kg, iv; type: ADME, organism-based; details: in vivo
[17] = Half life in CD rat at 1 mg/kg, iv and 5 mg/kg, po; type: ADME, organism-based; details: in vivo
Rattus norvegicus [18] = test: Antidiabetic activity in Zucker fa/fa rat assessed as reduction in triglyceride level in at 40 mg/kg, po twice a day for 5 days; type: functional; design: scale not given: the % may be the effect or the level left
[19] = AUC in CD rat at 5 mg/kg, po; type: ADME, organism-based; design: dose 5 mg/kg, route oral; details: plasma
[20] = Clearance in CD rat at 1 mg/kg, iv and 5 mg/kg, po; type: ADME, organism-based; details: in vivo
[21] = Volume of distribution at steady state in CD rat at 1 mg/kg, iv and 5 mg/kg, po; type: ADME, organism-based; details: in vivo, read-out: Vdss
Rattus norvegicus [22] = test: Antidiabetic activity in Zucker fa/fa rat assessed as reduction in hematocrit level in at 40 mg/kg, po twice a day for 5 days; type: functional; design: scale not given: the % may be the effect or the level left
[23] = Cmax in CD rat at 1 mg/kg, iv and 5 mg/kg, po; type: ADME, organism-based; details: in vivo
Rattus norvegicus [24] = test: Antidiabetic activity in Zucker fa/fa rat assessed as reduction in plasma glucose level in at 40 mg/kg, po twice a day for 5 days; type: functional; design: scale not given: the % may be the effect or the level left

SMILES | IC50 [5] [µM] | EC50 [6] [µM] | EC50 [7] [µM] | IC50 [8] [µM] | IC50 [9] [µM] | EC50 [13] [µM] | also measured
CN(CCOc1ccc(C[C@H](Nc2ccccc2C(=O)c2ccccc2)C(=O)O)cc1)c1ccccn1 |  |  |  |  |  |  | Activity (Rattus norvegicus [1]): 54%; Activity (Rattus norvegicus [2]): 15%; AUC [3]: 16500 ng·h/mL; Activity (Rattus norvegicus [4]): 21%
CCCc1cc2cc(NC(=O)C(CC)c3ccccc3)ccc2n1Cc1ccc(-c2ccccc2C(=O)O)cc1 (stereo not drawn) | > 10 | > 10 | 0.002 | 0.26 | > 10 |  | 
CCCc1nc2ccc(C(=O)NC(CC)c3ccccc3)cc2n1Cc1ccc(-c2ccccc2C(=O)O)cc1 (stereo not drawn) |  | > 10 | 0.9 |  |  | > 10 | EC50 [10]: > 10 µM; EC50 [11]: > 10 µM; EC50 [12]: 1.69 µM
Cc1c(C)n(Cc2ccc(-c3ccccc3C(=O)O)cc2)c2ccc(C(=O)NCc3ccccc3)cc12 | > 10 | > 10 |  |  | > 10 | > 10 | 
CCC(NC(=O)c1ccc2c(c1)cc(C)n2Cc1ccc(-c2ccccc2C(=O)O)cc1)c1ccccc1 (stereo not drawn) | > 10 | 4.96 | 0.017 | 0.018 | 7.04 | > 10 | Activity [14]: 114%
CCC(NC(=O)c1ccc2cc(C)n(Cc3ccc(-c4ccccc4C(=O)O)cc3)c2c1)c1ccccc1 (stereo not drawn) | > 10 | > 10 | 0.163 | 0.321 | > 10 | > 10 | 
CCCc1nc2c(C)cc(-c3nc4ccccc4n3C)cc2n1Cc1ccc(-c2ccccc2C(=O)O)cc1 | > 10 | > 10 | 2.02 | 12.2 | > 10 | > 10 | EC50 [10]: > 10 µM; EC50 [11]: > 10 µM; EC50 [12]: 4.06 µM
CCC(C(=O)Nc1ccc2c(c1)c(C)c(C)n2Cc1ccc(-c2ccccc2C(=O)O)cc1)c1ccccc1 (stereo not drawn) | > 10 | 6.14 | 0.338 | 0.574 | > 10 |  | Activity [14]: 45%
CCC(NC(=O)c1ccc2c(c1)c(C)c(C)n2Cc1ccc(-c2ccccc2C(=O)O)cc1)c1ccccc1 (stereo not drawn) | > 10 | > 10 |  |  | > 10 | > 10 | Activity [15]: 79%; EC50 [10]: 5.51 µM; EC50 [11]: > 10 µM; bioavailability [16]: 52%; half-life [17]: 4.58 h; Activity (Rattus norvegicus [18]): 49%; EC50 [12]: 0.002 µM; AUC [19]: 1150 ng·h/mL; clearance [20]: 40 mL/min/kg; Vd [21]: 17 L/kg; AUC [3]: 1330 ng·h/mL; Activity (Rattus norvegicus [22]): >10%; Cmax [23]: 319 ng/mL; Activity (Rattus norvegicus [24]): 25%
CCCc1c(SC)c2cc(NC(=O)C(CC)c3ccccc3)ccc2n1Cc1ccc(-c2ccccc2C(=O)O)cc1 (stereo not drawn) | > 10 | > 10 | 0.003 | 0.036 | > 10 | > 10 | 
Cc1c(C)n(Cc2ccc(-c3ccccc3C(=O)O)cc2)c2ccc(C(=O)NCCCc3ccccc3)cc12 | > 10 | > 10 | 0.022 | 0.018 | > 10 | > 10 | 
CCC(NC(=O)c1ccc2c(c1)c(SC)c(C)n2Cc1ccc(-c2ccccc2C(=O)O)cc1)c1ccccc1 (stereo not drawn) | > 10 | > 10 | 0.001 | 0.012 | > 10 | > 10 | 
CCCc1c(SC)c2ccc(NC(=O)C(CC)c3ccccc3)cc2n1Cc1ccc(-c2ccccc2C(=O)O)cc1 (stereo not drawn) | 6.95 | > 10 | 0.201 | 0.49 | > 10 |  | 
